Assay results taken from PMC9569450, “Dual Effect of Tryptamine on Prostate Cancer Cell Growth Regulation: A Pilot Study” (International Journal of Molecular Sciences, 2022).

Assays:
[1] = UPLC-HRMS detection of tryptamine in serum or tissue samples of xenograft mice; assay type: in vivo, BALB/c nude mice
Procedure: However, intraperitoneal injection of tryptamine promoted the growth of PC-3 xenograft tumors in nude mice. […] Additionally, it has been reported that the intraperitoneal injections of 10 mg/kg 5-HT increased tumor weight by almost 60% using an orthotopic mouse model of ovarian cancer. As is known, both 5-HT and tryptamine in the blood can be taken up and carried by platelets and released during degranulation, and also various tryptamine-related compounds are substrates of the platelet 5-HT transporter. Thus, the tumor growth promoting effect of intraperitoneal treatment of tryptamine in our study might be similar to the effect of 5-HT, which has long been thought to be related to tumor progression.

PC-3 cells [2] = test: Transwell migration assay, PC-3; assay type: cell-based, human; settings: 24 h
Procedure: (§1) Cell migration was evaluated using 8-μm transwell filters (Costar Corning, Schiphol-Rijk, The Netherlands). Cells at a density of 5 × 10^4 were seeded to the upper chamber, and the chamber was filled with FBS-free medium. Cells were incubated overnight to allow for adherence; then, the lower chamber was replaced with 10% FBS medium as a chemo-attractant. Following a 24 h incubation, non-migrating cells on the upper surface of the insert membrane were gently removed by cotton swabs and migrated cells on the lower surface of the insert membrane were fixed by 4% paraformaldehyde and stained with 0.1% crystal violet for 20 min. Migrated cells on each membrane were photographed and counted at 100× magnification field at six random fields.

A549 cells [3] = test: Transwell migration assay, A549; assay type: cell-based; settings: 24 h
Procedure: as §1

HepG2 cells [4] = test: MTT cell proliferation assay, HepG2; assay type: cell-based; settings: Homo sapiens, HepG2, 48 h treatment in FBS-free medium, read-out: IC50 Value (Mean ± SD mM) HepG2
Procedure: (§2) PC-3, LNCaP, RWPE-1, HepG2, A549, and PANC-1 cells were purchased from the National Collection of Authenticated Cell Cultures (Shanghai, China). […] All the above cell cultures were supplied with 10% fetal bovine serum and 1% penicillin-streptomycin. RWPE-1 cells were cultured in keratinocyte serum-free medium (K-SFM, Gibco, New York, NY, USA) supplemented with 50 mg/L bovine pituitary extract and 5 μg/L epidermal growth factor (EGF). All cell lines were grown in a humidified atmosphere of 5% CO2 at 37 °C.
(§3) Cells were seeded in 100 μL complete medium in a 96-well plate, at a density of 10,000 cells/well for LNCaP and 5000 cells/well for other cells. Cells were pre-incubated for 24 h to allow for adherence before removal of complete medium and treatment with various concentrations of compounds in fetal bovine serum (FBS)-free medium for 48 h. After treatment, 20 μL/well MTT (5 mg/mL) was added and incubated for 3–4 h at 37 °C, and then 100 μL/well DMSO was added for MTT assay. The plate was shaken on an orbital shaker for 10 min. Absorbance was measured using a microplate reader at 492 nm for the MTT assay (performed in triplicates). Cell viability was normalized to control. Half inhibitory concentration (IC50) was calculated by SPSS Statistics 17.0. […] The experiments were independently repeated two to three times.

HepG2 cells [5] = test: Transwell migration assay, HepG2; assay type: cell-based; settings: 24 h
Procedure: as §1

RWPE-1 cells = test: MTT cell proliferation assay, RWPE-1; assay type: cell-based; settings: Homo sapiens, RWPE-1; MTT, 48 h treatment in FBS-free medium; read-out: IC50 Value (Mean ± SD mM) RWPE-1
Procedure: as §2, §3

PC-3 cells [6] = test: Annexin V-FITC/PI flow cytometry apoptosis assay; assay type: cell-based, human; settings: 24 h
Procedure: Cell apoptosis was assessed by Annexin V-FITC and propidium iodide (PI) staining using an Annexin V-FITC apoptosis detection kit (Thermo Fisher Scientific, Carlsbad, CA, USA) according to the manufacturer’s instructions. Briefly, cells were seeded at a density of 1.0 × 10^5 cells/well and pre-incubated for 24 h to allow for adherence before treatment with various concentrations of tryptamine in an FBS-free medium. After 24 h of tryptamine incubation, cells in each well were harvested and centrifuged at 200× g for 5 min. Cells were washed with PBS and centrifuged at 200× g for 5 min. Cells were resuspended in 100 μL binding buffer, followed by staining with 5 μL Annexin V-FITC and 5 μL PI, and incubation on ice in the dark for 15 min after addition of each staining reagent. Subsequently, a 300 μL binding buffer was added to the sample and apoptotic cells were detected by a flow cytometer (NovoCyte; ACEA Biosciences Inc., San Diego, CA, USA).

A549 cells [7] = test: MTT cell proliferation assay, A549; assay type: cell-based; settings: Homo sapiens, A549, 48 h treatment in FBS-free medium, read-out: IC50 Value (Mean ± SD mM) A549
Procedure: as §2, §3

LNCaP cells = test: MTT cell proliferation assay, LNCaP; assay type: cell-based; settings: Homo sapiens, LNCaP, 48 h treatment in FBS-free medium, read-out: IC50 Value (Mean ± SD mM) LNCaP
Procedure: as §2, §3

In the case of `NCCc1c[nH]c2ccccc12` [Tryptamine], the “tryptamine in serum or tissue samples” value ([1]; intraperitoneal treatment group) is reported as “not detected”, the “tryptamine in tissue samples” value ([1]; intratumoral treatment group) is reported as “apparent peak” and the “migrated cells reduced by” value (PC-3 cells [2]; PC-3, 0.075 mM) is reported as 22%. The “percentage of migrated cells” value (PC-3 cells [2]; PC-3, 0.15 mM) was 58%, the “percentage of migrated cells” value (PC-3 cells [2]; PC-3, 0.3 mM) was 23% and the “migrated cells compared with the control” value (A549 cells [3]; A549, 0.075 mM) was “no significant difference”. The “percentage of migrated cells” value (A549 cells [3]; A549, 0.15 mM) was 80%, the “percentage of migrated cells” value (A549 cells [3]; A549, 0.3 mM) was 63% and the IC50 (HepG2 cells [4]) was 0.35 ± 0.02 mM. The “migrated cells compared with the control” value (HepG2 cells [5]; HepG2, 0.075 mM) was “no significant difference”, the “percentage of migrated cells” value (HepG2 cells [5]; HepG2, 0.15 mM) was 77% and the “percentage of migrated cells” value (HepG2 cells [5]; HepG2, 0.3 mM) was 55%. For the same compound, the IC50 (RWPE-1 cells) was 0.71 ± 0.06 mM, the “apoptotic cell populations (early and late apoptosis)” value (PC-3 cells [6]; PC-3, 0.2 mM) was 12.1% and the “apoptotic cell populations (early and late apoptosis)” value (PC-3 cells [6]; PC-3, 0.3 mM) was 21.4%. For the same compound, the IC50 (A549 cells [7]) was 0.46 ± 0.01 mM and the IC50 (LNCaP cells) was 0.037 ± 0.001 mM.
